Assays:
Format in all cases: cell-based
human A1 receptor = biological target: T1, human A1 receptor (Homo sapiens, UniProt P30542); test: functional cAMP (HTRF) assay, recombinant CHO cells expressing human A1 receptor, forskolin, agonist CPA
T1 construct: expressed in transfected cells; host or cells: CHO
T1 sequence (P30542 1-326): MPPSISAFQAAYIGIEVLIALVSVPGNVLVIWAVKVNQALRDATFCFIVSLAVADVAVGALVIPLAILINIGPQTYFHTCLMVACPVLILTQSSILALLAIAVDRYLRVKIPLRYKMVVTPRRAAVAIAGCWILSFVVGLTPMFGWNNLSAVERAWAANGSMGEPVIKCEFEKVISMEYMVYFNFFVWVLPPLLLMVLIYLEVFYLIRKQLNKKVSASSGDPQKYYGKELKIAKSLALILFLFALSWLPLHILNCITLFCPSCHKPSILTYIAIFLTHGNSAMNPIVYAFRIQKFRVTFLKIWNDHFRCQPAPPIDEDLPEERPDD
Method: (§1) The functional activities of human A2A, A2B, A1 and A3 receptors were determined by quantification of cAMP, being the second messenger for adenosine receptors.
(§2) For human A1 and A3 receptors, recombinant CHO cells, expressing either A1 or A3-receptor, were used. As both receptors couple to Gi proteins, the assay protocol was adapted:
(§3) Cells were seeded into 384-well plates, forskolin, test compounds and agonists (CPA for A1- and IB-MECA for A3-receptor) were added. After 30 min incubation, HTRF reagents (cAMP dynamic 2, Cis Bio) were added and the cellular cAMP levels were determined using the ENVISION (Perkin Elmer) plate reader. Obtained raw data were normalized against the inhibitor control and the neural control (DMSO) and the normalized data were fitted using GeneData software.

human A2A receptor = biological target: T2, human A2A receptor (Homo sapiens, UniProt P29274); test: functional cAMP (HTRF) assay, recombinant HEK293 cells expressing human A2A receptor, agonist NECA
T2 construct: expressed in transfected cells; host or cells: HEK293

A2B receptors = biological target: T3, A2B receptors (Homo sapiens, UniProt P29275); test: functional cAMP (HTRF) assay, recombinant HEK293 cells expressing human A2B receptor, agonist NECA; design: expressed in transfected cells; host or cells: HEK293
T3 sequence (P29275 1-332): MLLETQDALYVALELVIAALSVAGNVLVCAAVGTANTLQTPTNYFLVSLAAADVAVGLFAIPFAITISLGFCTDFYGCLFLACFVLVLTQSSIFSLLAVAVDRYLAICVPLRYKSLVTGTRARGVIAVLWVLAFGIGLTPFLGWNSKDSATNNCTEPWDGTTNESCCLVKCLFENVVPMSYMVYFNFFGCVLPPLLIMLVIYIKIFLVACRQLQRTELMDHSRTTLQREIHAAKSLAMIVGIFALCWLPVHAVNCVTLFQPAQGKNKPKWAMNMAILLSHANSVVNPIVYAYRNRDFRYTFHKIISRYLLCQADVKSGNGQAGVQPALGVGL

human A3 receptor = biological target: T4, human A3 receptor (Homo sapiens, UniProt P0DMS8); test: functional cAMP (HTRF) assay, recombinant CHO cells expressing human A3 receptor, forskolin, agonist IB-MECA
T4 construct: expressed in transfected cells; host or cells: CHO
T4 sequence (P0DMS8 1-318): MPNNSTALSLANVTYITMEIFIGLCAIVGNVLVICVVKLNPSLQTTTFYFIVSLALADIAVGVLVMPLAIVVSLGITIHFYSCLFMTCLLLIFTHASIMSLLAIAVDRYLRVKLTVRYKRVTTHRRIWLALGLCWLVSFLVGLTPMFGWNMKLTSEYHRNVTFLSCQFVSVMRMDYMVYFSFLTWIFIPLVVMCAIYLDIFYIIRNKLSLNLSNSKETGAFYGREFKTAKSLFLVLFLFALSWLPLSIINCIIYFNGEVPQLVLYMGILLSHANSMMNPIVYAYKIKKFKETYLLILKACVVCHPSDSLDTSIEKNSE
Method: as §1, §2, §3

T2 sequence (P29274 whole entry): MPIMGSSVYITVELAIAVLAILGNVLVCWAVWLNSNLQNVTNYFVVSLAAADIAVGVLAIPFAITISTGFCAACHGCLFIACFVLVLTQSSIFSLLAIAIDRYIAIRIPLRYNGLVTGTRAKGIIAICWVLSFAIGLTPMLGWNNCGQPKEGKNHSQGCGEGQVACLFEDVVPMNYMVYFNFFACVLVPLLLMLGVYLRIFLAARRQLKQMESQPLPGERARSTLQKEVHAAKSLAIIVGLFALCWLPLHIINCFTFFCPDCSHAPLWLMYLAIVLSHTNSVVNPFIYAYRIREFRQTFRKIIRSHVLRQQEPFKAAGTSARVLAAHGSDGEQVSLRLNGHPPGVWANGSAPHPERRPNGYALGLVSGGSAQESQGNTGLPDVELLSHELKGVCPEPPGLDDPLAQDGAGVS

| Structure (SMILES) | IC50 (human A1 receptor) [nM] | IC50 (human A2A receptor) [nM] | IC50 (A2B receptors) [nM] | IC50 (human A3 receptor) [nM] |
| --- | --- | --- | --- | --- |
| COc1ccc(C2CCOCC2)c2nc(NC(=O)NCc3nccs3)[nH]c12 [compound 228, 3-[7-methoxy-4-(oxan-4-yl)-1H-1,3-benzodiazol-2-yl]-1-[(1,3-thiazol-2-yl)methyl]urea] | > 1000 | < 100 | – | – |
| COc1ccc(-c2ccccc2)c2nc(NC(=O)N3CCC4(CCOCC4)C3)[nH]c12 [compound 310, N-(7-methoxy-4-phenyl-1H-1,3-benzodiazol-2-yl)-8-oxa-2-azaspiro[4.5]decane-2-carboxamide] | – | < 100 | < 100 | > 1000 |
| COCCn1cc(C(=O)Nc2nc3c(-c4cccc5cc[nH]c45)ccc(OC)c3[nH]2)cn1 [compound 304, N-[4-(1H-indol-7-yl)-7-methoxy-1H-1,3-benzodiazol-2-yl]-1-(2-methoxyethyl)-1H-pyrazole-4-carboxamide] | – | < 100 | < 100 | < 1000 |
| COc1ccc(-c2ccncc2)c2nc(NC(=O)c3ccc(CN(C)C)cc3)[nH]c12 [compound 89, 4-[(dimethylamino)methyl]-N-[7-methoxy-4-(pyridin-4-yl)-1H-1,3-benzodiazol-2-yl]benzamide] | – | < 100 | < 1000 | > 1000 |
| COc1ccc(-c2cccc3cc[nH]c23)c2nc(NC(=O)N3CCC(C)(O)CC3)[nH]c12 [compound 305, 4-hydroxy-N-[4-(1H-indol-7-yl)-7-methoxy-1H-1,3-benzodiazol-2-yl]-4-methylpiperidine-1-carboxamide] | – | < 100 | < 100 | > 1000 |
| COc1ccc(-c2ccccc2)c2[nH]c(NC(=O)c3ccc(C(=O)N4CCN(C)CC4)cc3)nc12 [compound 294, N-(4-methoxy-7-phenyl-1H-1,3-benzodiazol-2-yl)-4-(4-methylpiperazine-1-carbonyl)benzamide] | – | < 100 | < 10 | < 1000 |
| COc1ccc(-c2ccncc2)c2[nH]c(NC(=O)c3c[nH]cn3)nc12 [compound 266, N-[4-methoxy-7-(pyridin-4-yl)-1H-1,3-benzodiazol-2-yl]-1H-imidazole-4-carboxamide] | > 1000 | < 100 | < 100 | – |
| COc1ccc(-c2ccccc2)c2[nH]c(NC(=O)c3ccc(C(=O)N4CCOCC4)cc3)nc12 [compound 298, N-(4-methoxy-7-phenyl-1H-1,3-benzodiazol-2-yl)-4-(morpholine-4-carbonyl)benzamide] | – | < 100 | < 10 | < 1000 |
| COc1cc(F)c(C2CCOCC2)c2nc(NC(=O)c3ccc(C(=O)N(C)C)cc3)[nH]c12 [compound 277, N4-[5-fluoro-7-methoxy-4-(oxan-4-yl)-1H-1,3-benzodiazol-2-yl]-N1,N1-dimethylbenzene-1,4-dicarboxamide] | – | < 100 | < 100 | > 1000 |
| COc1ccc(-c2cnn(C)c2)c2nc(NC(=O)c3cncs3)[nH]c12 [compound 219, N-[7-methoxy-4-(1-methyl-1H-pyrazol-4-yl)-1H-1,3-benzodiazol-2-yl]-1,3-thiazole-5-carboxamide] | < 1000 | < 10 | < 10 | – |
| COc1ccc(-c2ccccc2)c2nc(NC(=O)c3cncn3C)[nH]c12 [compound 254, N-(7-methoxy-4-phenyl-1H-1,3-benzodiazol-2-yl)-1-methyl-1H-imidazole-5-carboxamide] | < 1000 | < 10 | < 10 | – |
| COCCN(C)C(=O)c1ccc(C(=O)Nc2nc3c(OC)ccc(-c4ccccc4)c3[nH]2)cc1 [compound 295, N4-(4-methoxy-7-phenyl-1H-1,3-benzodiazol-2-yl)-N1-(2-methoxyethyl)-N1-methylbenzene-1,4-dicarboxamide] | – | < 100 | < 100 | < 1000 |
| CCCN(C)C(=O)c1ccc(C(=O)Nc2nc3c(OC)ccc(-c4ccccc4)c3[nH]2)cc1 [compound 297, N4-(4-methoxy-7-phenyl-1H-1,3-benzodiazol-2-yl)-N1-methyl-N1-propylbenzene-1,4-dicarboxamide] | – | < 100 | < 100 | < 1000 |

Continued, values first:

| IC50 (human A1 receptor) [nM] | IC50 (human A2A receptor) [nM] | IC50 (A2B receptors) [nM] | IC50 (human A3 receptor) [nM] | Structure (SMILES) |
| --- | --- | --- | --- | --- |
| < 1000 | < 10 | < 10 | – | COCCOc1cccc(-c2ccc(OC)c3nc(NC(=O)c4c[nH]cn4)[nH]c23)c1 [compound 267, N-{4-methoxy-7-[3-(2-methoxyethoxy)phenyl]-1H-1,3-benzodiazol-2-yl}-1H-imidazole-4-carboxamide] |
| > 1000 | < 10 | < 100 | – | COc1ccc(-c2ccccc2)c2nc(NC(=O)c3ccc(CCl)cc3)[nH]c12 [compound 10, 4-Chloromethyl-N-(7-methoxy-4-phenyl-1H-benzoimidazol-2-yl)-benzamide] |
| – | < 10 | > 1000 | < 1000 | COc1ccc(-c2cnn(C)c2)c2nc(NC(=O)c3ccnc(N4CCC(C)(O)C4)c3)[nH]c12 (centres unmarked) [compound 30, 2-(3-Hydroxy-3-methyl-pyrrolidin-1-yl)-N-[7-methoxy-4-(1-methyl-1H-pyrazol-4-yl)-1H-benzoimidazol-2-yl]-isonicotinamide] |
| < 1000 | < 10 | < 10 | – | COc1ccc(-c2ccccc2)c2nc(NC(=O)c3cnc(C)s3)[nH]c12 [compound 257, N-(7-methoxy-4-phenyl-1H-1,3-benzodiazol-2-yl)-2-methyl-1,3-thiazole-5-carboxamide] |
| – | < 10 | < 100 | < 10 | COc1ccc(-c2ccccc2)c2nc(NC(=O)c3ccc(F)cc3)[nH]c12 [compound 2, 4-Fluoro-N-(7-methoxy-4-phenyl-1H-benzoimidazol-2-yl)-benzamide] |
| < 1000 | < 10 | < 10 | – | COc1ccc(-c2ccccc2)c2nc(NC(=O)c3cnc(N)s3)[nH]c12 [compound 258, 2-amino-N-(7-methoxy-4-phenyl-1H-1,3-benzodiazol-2-yl)-1,3-thiazole-5-carboxamide] |
| – | < 10 | > 1000 | > 1000 | COc1ccc(N2CCCOCC2)c2nc(NC(=O)c3ccc(C(=O)N(C)C)cc3)[nH]c12 [compound 313, N4-[7-methoxy-4-(1,4-oxazepan-4-yl)-1H-1,3-benzodiazol-2-yl]-N1,N1-dimethylbenzene-1,4-dicarboxamide] |
| < 1000 | < 10 | < 10 | – | COc1ccc(-c2cccnc2)c2nc(NC(=O)c3cnn(C)c3)[nH]c12 [compound 260, N-[7-methoxy-4-(pyridin-3-yl)-1H-1,3-benzodiazol-2-yl]-1-methyl-1H-pyrazole-4-carboxamide] |
| > 1000 | < 10 | > 1000 | – | COc1ccc(C2CCOCC2)c2nc(NC(=O)c3ccnc(N4CCC(C)(O)CC4)c3)[nH]c12 [compound 118, 2-(4-hydroxy-4-methylpiperidin-1-yl)-N-[7-methoxy-4-(oxan-4-yl)-1H-1,3-benzodiazol-2-yl]pyridine-4-carboxamide] |
| – | < 10 | < 100 | < 10 | COc1ccc(-c2ccccc2)c2nc(NC(=O)c3ccnc(Br)c3)[nH]c12 [compound 3, 2-Bromo-N-(7-methoxy-4-phenyl-1H-benzoimidazol-2-yl)-isonicotinamide] |
| – | < 10 | < 100 | < 10 | COc1ccc(-c2ccccc2)c2nc(NC(=O)c3ccc(Br)nc3)[nH]c12 [compound 5, 6-Bromo-N-(7-methoxy-4-phenyl-1H-benzoimidazol-2-yl)-nicotinamide] |
| < 1000 | < 10 | < 10 | – | COc1ccc(-c2ccccc2)c2nc(NC(=O)c3cncs3)[nH]c12 [compound 256, N-(7-methoxy-4-phenyl-1H-1,3-benzodiazol-2-yl)-1,3-thiazole-5-carboxamide] |

From patent US11453647B2, “Benzimidazole derivatives as adenosine receptor antagonists” (Merck Patent GmbH, priority 2017, dated 2022)
